# Measurements published in patent US20070225518A1, “5-Aminolevulinic acid salts and their use” (priority 2006, published 2007).
# “Also recorded” adds a separate entry of the source.
# Tests used:
# [1] = test system: Friend erythroleukemia cells (FLC); test: PpIX formation in FLC by HPLC analysis of extracted porphyrins; assay type: cell-based; conditions: 0.1 mg/ml, 4 h, retention time typical of PpIX
# Description: (§1) Cell culture. Friend erythroleukemia cells (FLC) and B16 melanoma cells were grown in a DMEM medium and RPMI 1640, respectively, (Biological Industries, Beit-Haemek, Israel), supplemented with 10% fetal calf serum and antibiotics, on tissue culture plates (Corning, Cambridge, Mass., USA) and incubated at 37° C. in a humidified atmosphere with 8% CO2. The cells were re-cultured twice a week.
# (§2) Extraction of porphyrins from cells. FLC were incubated with 0.1 mg/ml ALA-HCl, AN 301, or AN 302 for 4 h. The cells were then washed and suspended in 750 μl glacial acetic acid. The cells were then sonicated on ice, at an amplitude of 1-2, three times for 45 sec, with 15 sec between successive sonications. Following the sonication, the lysate was transferred to glass test tubes containing 2.25 ml ethyl acetate, vigorously vortexed and centrifuged for 15 min at 3000 rpm. 2.6 ml of the supernatant were then transferred to glass test tubes containing 500 μl/1000 μl 1 M HCl and incubated overnight at 4° C. in the dark. Two phases formed, a lower inorganic phase and an upper organic phase containing the porphyrins. 300-700 μl from the organic phase was carefully removed with a Pasteur pipet. The porphyrins were then examined by HPLC and by spectroscopy.
# High pressure liquid chromatograph [HPLC] analysis of porphyrins. Extracted porphyrins were purified by HPLC on an Apex Presil C18 8μ column (Jones, Chromatography, Lakewood, Colo.) using a 0-50% linear gradient aetonitrile (+0.1% trifluoroacetic acid) over 40-min elution at 47% acetonitrile.
# [2] = test system: Friend erythroleukemia cells (FLC); test: PpIX formation in FLC by fluorescence spectroscopy of extracted porphyrins; assay type: cell-based; conditions: 0.1 mg/ml, 4 h, excitation 410 nm, characteristic major peak at 633
# Description: as §1, §2
# Fluorometry of porphyrins. Fluorescence spectroscopy of the extrated porphyrins was examined using a SLM-Aminco spectrometer. Emission spectra were recorded following excitation at 410 nm.
# [3] = test system: Friend erythroleukemia cells (FLC); test: Flow cytometry for cellular PpIX after uptake of ALA salt; assay type: cell-based; conditions: stock solutions in H2O, PEG, buffer pH7
# Description: as §1
# (§3) Flow cytometry for cellular PpIX. […] After the incubation, the cells were washed with Ca^+2—Mg+^2 free PBS and scraped off with a rubber policeman. After a 10 min centrifugation at 1100 RPM, the supernatant was decanted and the pellet was resuspended in 0.5 ml Ca^+2—Mg^+2 free PBS. The cell suspension was filtered and measured using a Fluorescence Activated Cell Sorter (Becton Dickinson FACS Calibur, Mountain View, Calif., USA). 10,000 cells were measured in each sample using an excitation wavelength of 488 nm, and emission >600 nm, respectively.
# . Stock solutions of the ALA salt were made up in (a) H2O, (b) PEG, and (c) buffer pH7. […]. The ALA salt was then presented to the cells, and biosynthesis of PpIX was determined by flow cytometry. In controls (d) no ALA salt was presented to the cells. Typical results are shown in FIG. 3 in which the horizontal axis is florescence intensity (in arbitrary units), and the vertical axis is the number of cells having a given intensity level. […]
# [4] = test system: Friend erythroleukemia cells (FLC); test: Stability of stored ALA salt solutions, read out as porphyrin formation in FLC by flow cytometry; assay type: cell-based; conditions: for Stability of solutions on storage (porphyrin formation in cells): 0.1 mg/ml, 7 days at 4° C. and at 37° C.; for Stability in aqueous and non-aqueous media: aqueous as well as non-aqueous media such as PEG
# Description: as §3
# . […] (a), 37° C. (b), or after no storage (c). In controls (d), no ALA salt was presented to the cells. The cells were then examined for the presence of PpIX by flow cytometry at […]. […]
# B16 melanoma cells = test: ALA treatment, photosensitization and MTT assay; assay type: cell-based; conditions: 0.6 mM, 4 hr, irradiation 360-410 nm, MTT after 24 hr
# Description: as §1
# ALA treatment and photosensitization. […] At the end of the incubation period, the cells were irradiated using a Vilber Lourmat lamp, VL-206BL, delivering a power density of 22.5 mW at 360-410 nm. Light intensity was measured with a Nova photometer (Ophir Optronics, Jerusalem).
# MTT assay. The effect of PDT on cell viability was measured after 24 hr. by a modified MTT assay which is based on the ability of live cells to cleave the tetrazolium ring to a molecule that absorbs at 590 nm in active mitochondria (Mosmann, 1983). 2×10^3 cells were grown in 96-well plates. The growth medium was replaced and 20 μl MTT (3-(4,5-dimethylthiazol-2-yl)-2,5-diphenyl tetrazolium bromide), 5 mg/ml PBS (Sigma, Chemical Co, St. Louis, Mo., USA), were added to each well. The cells were further incubated at 37° C. for 2 h. For lysis of the cells, N,N-dimethyformamide was added to the media for 5 hours and absorbance was then measured at 590 nm.
# [5] = background statement, cited from earlier work
# [6] = stock solution stored 7 days, 4° C.
# [7] = stock solution stored 7 days, 37° C.
Structure (SMILES),PpIX formation in the cells as determined by HPLC [1],PpIX formation in the cells by spectroscopy [2],formation of PpIX inside the cells by flow cytometry [3],Stability of solutions on storage (porphyrin formation in cells) [4],"porphyrin formation in FLC by flow cytometry [4, 6] [arbitrary units]","porphyrin formation in FLC by flow cytometry [4, 7] [arbitrary units]","porphyrin formation in FLC by flow cytometry ([4]; stock solution, storage time 0) [arbitrary units]",Cell death / viability (MTT activity) following illumination (B16 melanoma cells),Stability in aqueous and non-aqueous media [4],Stability of solutions on storage (porphyrin formation in cells) ([4]; benzenesulfonate),"Solubility in stock solution solvents (H2O, PEG, and buffer pH7)",Lipid solubility PEG (PEG),Solubility in aqueous and non-aqueous media (aqueous as well as non-aqueous media such as PEG),Solubility in aqueous media ([5]; aqueous media),Solubility in organic solvents including polyethylene glycol (PEG) ([5]; organic solvents including PEG)
"NCC(=O)CCC(=O)O [AN-302, 5-Amino-4-oxopentanoic acid 2-naphtylsulfonate]",same porphyrin (PpIX) was generated,same porphyrin product was generated,leads to the formation of PpIX inside the cells,stable; also recorded: retained significant activity,23,29,49,as effective as ALA-HCl in causing cell death,–,–,–,–,–,–,–
"NCC(=O)CCC(=O)O.O=S(=O)(O)c1ccc2ccccc2c1 [AN-302, 5-Amino-4-oxopentanoic acid 2-naphtylsulfonate]",–,–,–,–,–,–,–,–,stable,–,–,–,–,–,–
"NCC(=O)CCC(=O)O.O=S(=O)(O)c1ccccc1 [AN-301, 5-Amino4-oxopentanoic acid benzenesulfonate]",same porphyrin (PpIX) was generated,same porphyrin product was generated,leads to the formation of PpIX inside the cells,–,39,39,57,as effective as ALA-HCl in causing cell death,stable,stable; also recorded: retained significant activity,soluble in each of these three solvents,soluble in PEG,soluble,–,–
"Cl.NCC(=O)CCC(=O)O [ALA-HCl, reference compound]",same porphyrin (PpIX) was generated,same porphyrin product was generated,–,completely degraded,3.5,3.5,60,–,–,–,–,–,–,soluble,insoluble
